Reference: patent US8088805B2, “Inhibitors of histone deacetylase” (MethylGene Inc., priority 2004, dated 2012)

Tests used:
[1] = biological target: T1, cloned recombinant human HDAC-1 enzyme (Homo sapiens, UniProt Q13547); experiment: HDAC-1 enzymatic inhibition, Assay 1 ([3H]-acetylated histone substrate); type: biochemical; conditions: Assay 1: [3H]-labeled acetylated histone substrate, recombinant hHDAC-1
T1 construct: made in house; host or cells: Baculovirus insect cell expression system
Method: Assay 1. HDAC inhibitors were screened against a cloned recombinant human HDAC-1 enzyme expressed and purified from a Baculovirus insect cell expression system. For deacetylase assays, 20,000 cpm of the [^3H]-metabolically labeled acetylated histone substrate (M. Yoshida et al., J. Biol. Chem. 265(28): 17174-17179 (1990)) was incubated with 30 μg of the cloned recombinant hHDAC-1 for 10 minutes at 37° C. The reaction was stopped by adding acetic acid (0.04 M, final concentration) and HCl (250 mM, final concentration). The mixture was extracted with ethyl acetate and the released [^3H]-acetic acid was quantified by scintillation counting. For inhibition studies, the enzyme was preincubated with compounds at 4° C. for 30 minutes prior to initiation of the enzymatic assay. IC50 values for HDAC enzyme inhibitors were determined by performing dose response curves with individual compounds and determining the concentration of inhibitor producing fifty percent of the maximal inhibition.
Assay 1 was used to measure HDAC activity of compounds 10c, 13e, 16d, 26b, 44, 47, 61a, 61b, 63, 134, 138, and 308. Assay 2 was used to measure HDAC activity of compounds 361, 366, 367, 368, 369, 370, 371, 372, 373, 374, 375, 376, 377, and 378. In Table 14, “a” indicates activity of ≦0.1 μM, “b” indicates activity of ≦1 μM, “c” indicates activity of ≦5 μM, and “d” indicates activity of >5 μm. For the H4-Ac T24 EC vs. MS-275 assay in Table 14, “u” indicates less than 1, “v” indicates 1, and “w” indicates greater than 1. For the H3 Ac t24 assay in Table 14, “x” indicates activity of ≦1 μM, “y” indicates activity of ≦10 μM, and “z” indicates activity of ≦20 μM.

HCT116 cells = experiment: MTT assay; type: cell-based; conditions: Homo sapiens, HCT-116, 72 hours
Method: HCT116 cells (2000/well) were plated into 96-well tissue culture plates one day before compound treatment. Compounds at various concentrations were added to the cells. The cells were incubated for 72 hours at 37° C. in 5% CO2 incubator. MTT (3-[4,5-dimethylthiazol-2-yl]-2,5diphenyl tetrazolium bromide, Sigma) was added at a final concentration of 0.5 mg/ml and incubated with the cells for 4 hours before one volume of solubilization buffer (50% N,N-dimethylformamide, 20% SDS, pH 4.7) was added onto the cultured cells. After overnight incubation, solubilized dye was quantified by colorimetric reading at 570 nM using a reference at 630 nM using an MR700 plate reader (Dynatech Laboratories Inc.). OD values were converted to cell numbers according to a standard growth curve of the relevant cell line. The concentration which reduces cell numbers to 50% of that of solvent treated cells is determined as MTT IC50. In Table 14, “a” indicates activity of ≦0.1 μM, “b” indicates activity of ≦1 μM, and “c” indicates activity of ≦5 μM.

[2] = system: Histone H4 acetylation in T24 human bladder cancer cells; experiment: Histone H4 acetylation in whole cells by immunoblots; type: cell-based; conditions: ratio of EC50 of compound to EC50 of control MS-275, 16 h
Method: T24 human bladder cancer cells growing in culture were incubated with HDAC inhibitors for 16 h. Histones were extracted from the cells after the culture period as described by M. Yoshida et al. (J. Biol. Chem. 265(28): 17174-17179 (1990)). […] of total histone protein was loaded onto SDS/PAGE and transferred to nitrocellulose membranes. Membranes were probed with polyclonal antibodies specific for acetylated histone H-4 (Upstate Biotech Inc.), followed by horse radish peroxidase conjugated secondary antibodies (Sigma). Enhanced Chemiluminescence (ECL) (Amersham) detection was performed using Kodak films (Eastman Kodak). Acetylated H-4 signal was quantified by densitometry. Data are presented as the ratio of the concentration effective for […] the acetylated H-4 signal by 50% (EC50) using the indicated compound of the invention to a control compound, MS-275. If the indicated ratio is 1, then the compound of the invention is as effective as the MS-275 control compound. […] Further information regarding the MS-275 compound can be found in Suzuki et al., J. Med. Chem. 1999, pp. 3001-3003.

SW48 colon cancer cells = experiment: Human tumor xenograft in vivo, SW48; conditions: Mus musculus, 40 mg/kg ip, mice, read-out: % Inhibition (relative to vehicle control) SW48
Method: (§1) Eight to ten week old female BCD1 mice (Taconic Labs, Great Barrington, N.Y.) were injected subcutaneously in the flank area with 2×10^6 preconditioned HCT116 human colorectal carcinoma cells, SW48 colon cancer cells, and A549 lung cancer cells. Preconditioning of these cells was done by a minimum of three consecutive tumor transplantations in the same strain of nude mice. Subsequently, tumor fragments of approximately 30 mgs were excised and implanted subcutaneously in mice, in the left flank area, under Forene anesthesia (Abbott Labs, Geneva, Switzerland). When the tumors reached a mean volume of 100 mm^3, the mice were treated intraperitoneally by daily injection, with a solution of the histone deacetylase inhibitor in DMSO, at a starting dose of 10 mg/kg. The optimal dose of the HDAC inhibitor was established by dose response experiments according to standard protocols. Tumor volume was calculated every second day post infusion according to standard methods (e.g., Meyer et al., Int. J. Cancer 43: 851-856 (1989)).

A549 lung cancer cells = experiment: Human tumor xenograft in vivo, A549; conditions: mice
Method: as §1

[3] = system: HCT116 human colorectal carcinoma cells; experiment: Human tumor xenograft in vivo, HCT116; conditions: Mus musculus, HCT-116; 30 mg/kg ip, mice; read-out: % Inhibition (relative to vehicle control) HCT116
Method: as §1

T1 sequence (Q13547 whole entry): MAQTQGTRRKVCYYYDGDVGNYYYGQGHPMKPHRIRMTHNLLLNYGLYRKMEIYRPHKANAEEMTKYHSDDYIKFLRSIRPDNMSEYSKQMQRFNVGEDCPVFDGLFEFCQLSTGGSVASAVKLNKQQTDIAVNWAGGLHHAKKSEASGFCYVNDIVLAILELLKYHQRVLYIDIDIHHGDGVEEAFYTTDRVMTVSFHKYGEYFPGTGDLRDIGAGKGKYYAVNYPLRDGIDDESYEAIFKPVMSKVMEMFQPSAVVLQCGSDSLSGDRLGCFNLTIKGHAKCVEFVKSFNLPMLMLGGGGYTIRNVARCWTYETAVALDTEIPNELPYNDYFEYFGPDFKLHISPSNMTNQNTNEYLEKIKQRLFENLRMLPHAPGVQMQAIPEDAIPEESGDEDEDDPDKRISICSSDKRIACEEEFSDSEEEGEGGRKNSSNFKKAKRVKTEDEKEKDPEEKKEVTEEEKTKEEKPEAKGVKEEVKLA

Row | SMILES | IC50 [1] [nM] | IC50 (HCT116 cells) [nM] | H4-Ac T24 EC vs. MS-275 [2] | inhibition in vivo at 40 mg/kg (SW48 colon cancer cells) [%] | % Inhibition (relative to vehicle control) A549 (A549 lung cancer cells; 40 mg/kg ip) [%] | inhibition in vivo at 30 mg/kg [3] [%] | % Inhibition (relative to vehicle control) A549 (A549 lung cancer cells; 30 mg/kg ip) [%]
1 | Nc1ccccc1NC(=O)c1ccc(CNc2nccc(-c3ccccn3)n2)cc1 [26b, N-(2-Amino-phenyl)-4-[(4-pyridin-2-yl-pyrimidin-2-ylamino)-methyl]-benzamide] | 1000 to 5000 | ≤ 100 | v (“v” indicates 1) | 75.1 | 74.4 |  | 
2 | CN(C)CCOc1ccc2nc(NCc3ccc(C(=O)Nc4ccccc4N)cc3)sc2c1 [compound 138, N-(2-Amino-phenyl)-4-{[6-(2-dimethylamino-ethoxy)-benzothiazol-2-ylamino]-methyl}-benzamide] | 1000 to 5000 | ≤ 100 | u (“u” indicates less than 1) |  |  | 79.8 | 83.7
